Source: patent publication US9908896B2, “P38 and JNK MAPK inhibitors for the treatment and prophylaxis of degenerative diseases of the nervous system” (ALLINKY BIOPHARMA, priority 2014, dated 2018)
Where “and” joins values, the source holds several entries; their conditions need not be identical. Equal values may be shown once. Read-outs that look alike come from different tables or passages of the source.

Tests used:
[1] = system: recombinant activated JNK; experiment: in vitro kinase assay JNK (ADP-Glo); format: biochemical; conditions: 100 μM ATP
Experimental: Purified recombinant activated JNK (10 nM) (ProQinase) was preincubated 10 minutes at 30° C. with the compound of interest at concentrations between 1 and 100 μM in duplicate in a final volume of 30 μl of kinase buffer (Hepes 60 mM pH 7.5, MgCl2 3 mM, MnCl2 3 mM, sodium orthovanadate 3 μM, DTT 1.2 mM). After preincubation, peptide substrate (SignalChem #P03-58) and ATP were added to a final concentration of 10 μM and 100 μM respectively, and then incubated 40 minutes at 30° C. for the kinase reaction. Phosphorylation was analyzed with ADP-Glo™ (Promega #V9101) and emitted luminescence was measured with BMG Fluostar microplate reader.

[2] = Single dose i.p. and i.v. blood brain barrier permeability study, plasma and brain concentration (LC-MS/MS); format: in vivo, male Sprague Dawley rat; conditions: for concentration at 2 h: male, Sprague Dawley, 10 mg/kg
Experimental: The objective of these tests was to determine the plasma and brain concentration of the compound 1 in male Sprague Dawley rat after single intraperioneal (i.p.) and intravenous (i.v.) administration.
The compound 1 was administered intravenously (i.v.) through tail vein and intraperitoneally (i.p.) in abdominal cavity. After dosing of each animal, the time was documented.
Formulation vehicle: 20 Vol.-% Cremophore, 10 Vol.-% ethanol, 70 Vol.-% normal saline
Bioanalysis was performed using fit-for-purpose LC-MS/MS method for the quantification of test compounds in plasma samples and brain homogenate. The method was validated for calibration curve consisted of nine non-zero calibration standards along with a double blank and zero standard samples. Study samples were analysed along with two sets of quality control samples (6 QC samples; low, medium and high QC sample).
Sample Process: Blood samples were placed on ice prior to centrifugation and centrifuged within 15 min at 5000 rpm for 10 min at 4° C.
Immediately after blood withdrawal, in situ brain perfusion was performed using chilled saline. The chest of the rat was exposed, the abdominal aorta was clamped and both jugular veins were cut. Intra-cardial perfusion was performed through an insertion in the left ventricle. Perfusion of each rat was followed by exanguination for brain collection. The skin over the cranium was incised and deflected. The head was flexed and a cut was made through the muscles and the spinal cord at the junction of the foreman magnum and atlas vertebra. A circumferential incision was carefully made in the cranium using a bone cutter. The roof of the cranium was lifted off to expose the meninges and brain. The meninges were removed carefully. Then holding the head with the nose pointing upward, the anterior part of the brain was lifted to separate the brain. Separated brain was immediately weighed and frozen at −80±10° C. until homogenization.
Brain samples were thawed on ice. An appropriate volume of ice cold homogenizing media (Normal Saline) was added. Brain samples were homogenized on ice with the Polytron® homogenizer and volume was adjusted with homogenizing media to achieve 1 g of brain per 5 ml of homogenate. After homogenization, the brain homogenate were immediately frozen at −80° C. until analysis.

For `CCCOc1ccc(Nc2nc3nonc3nc2N2CCC(Oc3ccc(Cl)cc3)CC2)cc1` [Comp 1], the “% of inhibition at 1 μM, JNK” value ([1]; 1 μM compound) was 49%, the “% of inhibition at 10 μM, JNK” value ([1]; 10 μM compound) was 98% and the “Concentration in rat brain homogenate i.p. at 2 h, individual rats” value ([2]; 10 mg/kg i.p., rats R1, R2, R3) was 31.30 ng/g and 44.55 ng/g. The “Concentration in rat plasma i.p. at 2 h, individual rats” value ([2]; 10 mg/kg i.p., rats R1, R2, R3) was 63.64 ng/mL and 87.75 ng/mL, the “Concentration in rat brain homogenate i.v. at 2 h, individual rats” value ([2]; 10 mg/kg i.v., rats R1, R2, R3) was 394.80 ng/g and 439.45 ng/g and the “Concentration in rat plasma i.v. at 2 h, individual rats” value ([2]; 10 mg/kg i.v., rats R1, R2, R3) was 293.38 ng/mL and 156.26 ng/mL. It also gave a concentration at 2 h ([2]; rat, brain homogenate, intraperitoneal, 10 mg/kg i.p., mean of 3 rats, read-out: Concentration in rat brain homogenate i.p. at 2 h, Mean) of 41.6 ng/g, a concentration at 2 h ([2]; rat, brain homogenate, intraperitoneal, 10 mg/kg i.p., rats R1, R2, R3, read-out: Concentration in rat brain homogenate i.p. at 2 h, individual rats) of 49.1 ng/g and a concentration at 2 h ([2]; rat, brain homogenate, intravenous, 10 mg/kg i.v., mean of 3 rats, read-out: Concentration in rat brain homogenate i.v. at 2 h, Mean) of 386 ng/g. The concentration at 2 h ([2]; rat, brain homogenate, intravenous, 10 mg/kg i.v., rats R1, R2, R3, read-out: Concentration in rat brain homogenate i.v. at 2 h, individual rats) was 323 ng/g, the concentration at 2 h ([2]; rat, plasma, intraperitoneal, 10 mg/kg i.p., mean of 3 rats, read-out: Concentration in rat plasma i.p. at 2 h, Mean) was 91.5 ng/mL and the concentration at 2 h ([2]; rat, plasma, intraperitoneal, 10 mg/kg i.p., rats R1, R2, R3, read-out: Concentration in rat plasma i.p. at 2 h, individual rats) was 123 ng/mL. The concentration at 2 h ([2]; rat, plasma, intravenous, 10 mg/kg i.v., mean of 3 rats, read-out: Concentration in rat plasma i.v. at 2 h, Mean) was 204 ng/mL, the concentration at 2 h ([2]; rat, plasma, intravenous, 10 mg/kg i.v., rats R1, R2, R3, read-out: Concentration in rat plasma i.v. at 2 h, individual rats) was 163 ng/mL and the “blood-brain permeability (in words)” value ([2]; rat, 10 mg/kg i.v. or i.p., 2 h) was “excellent blood-brain permeability”.
